Source: US10766862B2, “Crystal form and salt form of and preparation method for tyrosine kinase inhibitor” (GUANGDONG RAYNOVENT BIOTECH CO., LTD., priority 2016, dated 2020)

Tests used:
[1] = biological target: T1, VEGFR2 (Homo sapiens, UniProt P35968); test: Z'-LYTE Detection Kinase Assay, VEGFR2 enzyme reaction; type: biochemical
T1 construct: purchased Life technology
Source text: (§1) It is to evaluate the inhibitory effect of the compound on three kinases VEGFR2, FGFR1, PDGFRB by detecting the enzyme activity in accordance with Z′-LYTE™ Detection Kinase Assay and using the ICso value of the compound as the index.
(§2) Recombinant human VEGFR2 and FGFR1 proteins are purchased from Life technology, and PDGFRB proteinase is purchased from Millipore.
(§3) Z-LYTE™ Kit Tyr1 and Tyr4 are purchased from Life technology.
(§4) Read with Multimode Microplate Reader Envision (PerkinElmer).
(§5) The compound to be test was subject to a 3-fold concentration gradient dilution to 11 final concentrations ranging from 10 μM to 0.17 nM 11 with two duplicate wells per concentration. The concentration of DMSO was 1% in the test reaction.
3 nM VEGFR2 protein kinase, 2 μM Tyr1 peptide, 100 μM ATP, 50 mM HEPES (pH 7.5), 10 mM MgCl2, 1 mM EGTA, 0.01% BRIJ-35. The test plate is Black Proxiplate 384-Plus plate (PerkinElmer). The reaction runs at room temperature for 60 minutes, and the reaction system is 10 μL.
(§6) 5 μL of DV reagent B (1:128) was added to the kinase reaction mixture to stopped the reaction. The reaction mixture was incubated at 23° C. for 60 minutes, and read by Envision.
(§7) The data were converted to the phosphorylation rate and the inhibition rate. The parameter curve was fitted (Model 205 in XLFIT5, iDBS) to obtain the ICso data of the compound.

[2] = system: HUVEC; test: CellTiter-Glo Luminescent Cell Viability Assay on HUVEC stimulated with hVEGF-165; type: cell-based; details: Homo sapiens, hVEGF-165 20 ng/ml, 72 hr
Experimental: It is to detect the intracellular ATP change by CellTiter-Glo® Luminescent Cell Viability Assay, and evaluate the inhibitory effect of the compound on in vitro cell HUVEC with ICso value of the compound as the index.
HUVEC cell lines (ATCC), EGM-2 BulletKit (Lonza), hVEGF-165 (Cell Signaling), pancreatin (Invitrogen), DPBS (Hyclone), 384-well cell plate (Greiner), 384-well compound plate (Greiner), CO2 incubator (Thermo), centrifuger (Eppendorf), Vi-cell Cell Count (Beckman Coulter), Bravo Automated Liquid Handing Platform (Agilent), Envision (Perkin Elmer)
Test Method • A. Cells recovery and growth. • B. Cell planking: HUVEC cells were re-suspended with a fasted media (containing only 2% FBS and 0.1% GA-1000), and diluted to a concentration of 20,000/mL. The diluted cells were added into 384-well plate (Greiner) with 50 μL/well. The cell plate was placed in an incubator containing 5% CO2 at 37° C. overnight. • C. Compound Addition: The compound to be tested was subject to a 4-fold gradient dilution to 10 samples having a final concentration ranging from 10 μM to 0.038 nM with two duplicate wells per concentration. […] The mixture was incubated at room temperature for 10-30 minutes, and read with Envision. […]

[3] = biological target: T2, FGFR1 (Homo sapiens, UniProt P11362); test: Z'-LYTE Detection Kinase Assay, FGFR1 enzyme reaction; type: biochemical
T2 construct: purchased Life technology
T2 sequence (P11362 22-822): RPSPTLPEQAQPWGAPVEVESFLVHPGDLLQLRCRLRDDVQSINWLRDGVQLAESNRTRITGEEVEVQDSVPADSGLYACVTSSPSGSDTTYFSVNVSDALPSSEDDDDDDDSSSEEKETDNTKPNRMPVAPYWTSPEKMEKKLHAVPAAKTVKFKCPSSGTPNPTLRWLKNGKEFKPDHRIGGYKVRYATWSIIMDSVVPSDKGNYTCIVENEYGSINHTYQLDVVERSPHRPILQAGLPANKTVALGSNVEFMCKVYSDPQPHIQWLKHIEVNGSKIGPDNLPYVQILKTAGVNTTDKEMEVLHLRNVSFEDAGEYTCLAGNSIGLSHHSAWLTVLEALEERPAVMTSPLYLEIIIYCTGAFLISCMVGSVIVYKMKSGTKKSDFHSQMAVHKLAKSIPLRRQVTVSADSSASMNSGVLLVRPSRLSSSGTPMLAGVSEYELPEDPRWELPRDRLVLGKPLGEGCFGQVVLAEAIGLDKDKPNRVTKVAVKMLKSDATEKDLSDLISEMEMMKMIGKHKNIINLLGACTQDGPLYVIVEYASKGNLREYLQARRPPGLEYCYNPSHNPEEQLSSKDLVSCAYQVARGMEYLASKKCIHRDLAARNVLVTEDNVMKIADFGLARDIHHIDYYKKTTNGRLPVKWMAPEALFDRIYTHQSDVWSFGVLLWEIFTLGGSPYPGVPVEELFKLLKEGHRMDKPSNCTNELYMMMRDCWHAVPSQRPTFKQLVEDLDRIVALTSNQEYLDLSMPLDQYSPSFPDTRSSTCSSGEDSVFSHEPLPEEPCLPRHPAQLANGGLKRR
Source text: as §1, §2, §3, §4, §5
1 nM FGFR1 protein kinase, 2 μM Tyr4 peptide, 25 μM ATP, 50 mM HEPES (pH 7.5), 10 mM MgCl2, 1 mM EGTA, 0.01% BRIJ-35, 2 mM MnCl2, 1 mM DTT. The test plate is Black Proxiplate 384-Plus plate (PerkinElmer). The reaction runs at room temperature for 60 minutes, and the reaction system is 10 μL.
as §6, §7

[4] = biological target: T3, PDGFRB (Homo sapiens, UniProt P09619); test: Z'-LYTE Detection Kinase Assay, PDGFRB enzyme reaction; type: biochemical
T3 construct: purchased Millipore
T3 sequence (P09619 33-1106): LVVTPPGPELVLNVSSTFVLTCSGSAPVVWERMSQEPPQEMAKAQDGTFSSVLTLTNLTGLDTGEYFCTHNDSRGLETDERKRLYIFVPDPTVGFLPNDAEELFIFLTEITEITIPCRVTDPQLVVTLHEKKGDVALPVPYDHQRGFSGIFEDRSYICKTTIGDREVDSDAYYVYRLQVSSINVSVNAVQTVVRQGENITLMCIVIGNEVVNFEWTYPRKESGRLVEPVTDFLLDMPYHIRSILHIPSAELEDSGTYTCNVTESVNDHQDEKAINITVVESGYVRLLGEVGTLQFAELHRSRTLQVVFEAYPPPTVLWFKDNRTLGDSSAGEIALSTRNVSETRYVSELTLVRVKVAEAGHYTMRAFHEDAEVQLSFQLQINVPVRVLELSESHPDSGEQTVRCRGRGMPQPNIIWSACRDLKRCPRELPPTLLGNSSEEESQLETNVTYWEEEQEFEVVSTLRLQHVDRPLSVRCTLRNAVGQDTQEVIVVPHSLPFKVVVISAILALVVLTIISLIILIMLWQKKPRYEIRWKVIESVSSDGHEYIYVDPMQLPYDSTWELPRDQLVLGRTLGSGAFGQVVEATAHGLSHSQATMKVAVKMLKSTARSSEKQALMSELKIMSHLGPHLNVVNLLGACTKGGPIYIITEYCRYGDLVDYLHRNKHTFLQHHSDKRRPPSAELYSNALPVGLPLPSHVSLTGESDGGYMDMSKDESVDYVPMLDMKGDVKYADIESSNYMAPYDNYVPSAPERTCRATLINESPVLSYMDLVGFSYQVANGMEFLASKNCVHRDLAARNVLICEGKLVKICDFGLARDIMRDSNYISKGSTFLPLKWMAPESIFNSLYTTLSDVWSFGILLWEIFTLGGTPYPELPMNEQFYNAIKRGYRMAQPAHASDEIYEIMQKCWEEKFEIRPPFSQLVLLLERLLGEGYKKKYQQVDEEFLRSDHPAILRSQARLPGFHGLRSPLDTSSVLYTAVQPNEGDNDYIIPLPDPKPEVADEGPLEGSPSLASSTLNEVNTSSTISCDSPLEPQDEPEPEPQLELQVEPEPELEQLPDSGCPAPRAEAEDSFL
Source text: as §1, §2, §3, §4, §5
40 nM PDGFRB protein kinase, 2 μM Tyr4 peptide, 100 μM ATP, 50 mM HEPES (pH 7.5), 10 mM MgCl2, 1 mM EGTA, 0.01% BRIJ-35, 2 mM MnCl2, 1 mM DTT. The test plate is Black Proxiplate 384-Plus plate (PerkinElmer). The reaction runs at room temperature for 60 minutes, and the reaction system is […].
as §6, §7

[5] = 100 μM ATP, 60 minutes, room temperature

T1 sequence (P35968 20-1356): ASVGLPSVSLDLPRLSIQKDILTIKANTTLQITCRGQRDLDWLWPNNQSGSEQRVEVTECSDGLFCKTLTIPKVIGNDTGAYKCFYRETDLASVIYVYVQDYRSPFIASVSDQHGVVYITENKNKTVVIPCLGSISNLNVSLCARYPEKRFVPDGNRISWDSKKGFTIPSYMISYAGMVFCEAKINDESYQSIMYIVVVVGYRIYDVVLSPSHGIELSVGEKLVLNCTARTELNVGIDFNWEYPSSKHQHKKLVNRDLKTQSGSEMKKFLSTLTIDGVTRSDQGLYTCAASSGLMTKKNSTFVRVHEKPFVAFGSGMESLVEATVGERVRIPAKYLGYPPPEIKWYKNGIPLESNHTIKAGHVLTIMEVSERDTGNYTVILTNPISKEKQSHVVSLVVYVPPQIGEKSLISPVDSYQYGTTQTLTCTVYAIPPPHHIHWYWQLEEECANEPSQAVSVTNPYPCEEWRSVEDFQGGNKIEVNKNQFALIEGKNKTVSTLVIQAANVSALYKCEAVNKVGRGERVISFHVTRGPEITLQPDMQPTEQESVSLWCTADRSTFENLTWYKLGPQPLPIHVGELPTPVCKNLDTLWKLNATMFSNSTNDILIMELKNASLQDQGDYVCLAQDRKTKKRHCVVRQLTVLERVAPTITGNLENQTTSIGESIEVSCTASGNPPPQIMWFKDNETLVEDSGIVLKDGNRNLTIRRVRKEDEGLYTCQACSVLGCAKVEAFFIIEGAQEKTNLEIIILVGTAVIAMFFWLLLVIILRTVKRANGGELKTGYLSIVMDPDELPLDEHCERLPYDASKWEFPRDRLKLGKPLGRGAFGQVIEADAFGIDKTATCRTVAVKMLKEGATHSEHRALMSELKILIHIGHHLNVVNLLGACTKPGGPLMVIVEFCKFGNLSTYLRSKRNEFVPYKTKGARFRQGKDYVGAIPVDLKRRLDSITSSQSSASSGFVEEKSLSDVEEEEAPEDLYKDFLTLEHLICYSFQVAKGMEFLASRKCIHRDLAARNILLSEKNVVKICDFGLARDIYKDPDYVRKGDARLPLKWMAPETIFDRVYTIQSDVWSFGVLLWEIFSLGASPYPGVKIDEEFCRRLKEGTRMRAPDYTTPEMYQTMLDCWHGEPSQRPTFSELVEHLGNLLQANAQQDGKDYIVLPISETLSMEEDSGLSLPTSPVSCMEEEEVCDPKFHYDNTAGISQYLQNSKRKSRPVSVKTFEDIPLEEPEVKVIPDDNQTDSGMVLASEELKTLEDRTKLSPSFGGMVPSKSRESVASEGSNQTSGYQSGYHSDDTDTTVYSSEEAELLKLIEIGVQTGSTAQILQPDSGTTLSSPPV

Which results are given for `COc1cc2nccc(Oc3ccc(NC(=S)NC4CC4)c(Cl)c3F)c2cc1C(N)=O` [Compound 1]?
Inhibitory activity on VEGFR2 in vitro, conclusion in words [1]: superior inhibitory activity; IC50 [1, 5]: < 50 nM; IC50 [2]: < 100 nM; Inhibitory activity on FGFR1 in vitro, conclusion in words [3]: superior inhibitory activity; IC50 ([3]; 25 μM ATP, 60 minutes, room temperature): 50 to 200 nM; Inhibitory activity on PDGFRB in vitro, conclusion in words [4]: superior inhibitory activity; IC50 [4, 5]: < 50 nM
